Assay results published in patent US9567303B2, “Crystal of 5-hydroxy-1H-imidazole-4-carboxamide hydrate and pharmaceutical composition thereof” (FUJIFILM Corporation, priority 2011, dated 2017).

Columns and labels:
Type in all cases: physicochemical
[1] = Hue (H) in the Munsell color system of the crystals (Test Example 6); details: reflection method, crystals as obtained, hydrate
Excerpt: The Munsell color system is the color system developed by Albert H. Munsell. In the system, color is defined in terms of three attributions, hue, brightness and chroma. Hue (H) represents kinds of colors and, in the Munsell color system, hue is defined by using a total of 10 hues including 5 fundamental hues of red (R), yellow (Y), green (G), blue (B) and purple (P) and 5 intermediate hues of yellow-red (YR), yellow-green (YG), blue-green (BG), blue-purple (BP) and red-purple (RP). In addition, each hue of the 10 hues is further defined by using uniform color scales so that the maximum classification is 10. Hue (H) can be measured by using a measuring device such as a colorimeter or a color-difference meter.
Hue (H) in the Munsell color system of the crystals of Examples 9, 11 to 14 was observed.
Colorimeter: Spectrophotometric colorimeter SE 2000, manufactured by NIPPON DENSHOKU […] CO., LTD.
(§1) Measurement method: Reflection method

[2] = Storage stability test under high temperature and high humidity conditions (Test Example 1); details: about 0.2 g in glass vial, one week, 60° C., relative humidity 75%; compared to Comparative Example 1
Experimental: Storage stability test under high temperature and high humidity conditions
As a test material, the crystals obtained from Example 3 and Comparative Example 1 were selected.
Each of the test material (about 0.2 g) was added to a glass vial and stored for one week under the conditions including temperature of 60° C. and relative humidity of 75%.
State of the crystal of Example 3 before starting the test is illustrated in FIG. 4 and state of the crystal of Example 3 after finishing the test is illustrated in FIG. 5. Further, state of the crystal of Comparative Example 1 before starting the test is illustrated in FIG. 6 and state of the crystal of Comparative Example 1 after finishing the test is illustrated in FIG. 7.

[3] = Observation of the color of the crystals (Test Example 3); details: crystals as obtained; hydrate
Excerpt: Observation of the color of the crystals obtained in Examples 5 and 8 and Comparative Examples 4 and 5 was made.

[4] = Color difference of the crystal before and after storage, spectrophotometric colorimeter, reflection method (Test Examples 4 and 5); details: Table 6, stored 2 weeks, air atmosphere, 40° C., relative humidity 75%, double polyethylene bag
Experimental: As described herein, the color difference of the crystal is measured by reflection method using a spectrocolorimeter.
About 1 g of the test material was added in a storage bag, the storage bag being prepared by inserting one polyethylene bag into another polyethylene bag, each polyethylene bag having a thickness of 0.04 mm, each of the polyethylene bags was sealed, and the test material was stored for 2 weeks in conditions of air atmosphere at a temperature of 40° C. and a relative humidity of 75%. Color change of the crystal before and after the test was evaluated based on color difference.
as §1

[5] = Naked-eye observation of coloration after storage at 60° C. and 75% relative humidity; details: stored 2 weeks, relative humidity 75%
Experimental: Compound of Example 9 after it has been stored for 2 weeks under the condition including a temperature of 60° C. and a relative humidity of 75% is illustrated in FIG. 11.

NC(=O)c1nc[nH]c1O [Example 12, 5-hydroxy-1H-imidazole-4-carboxamide.3/4 hydrate]
Hue (H) [1]: 4.4Y

NC(=O)c1nc[nH]c1O.O [Example 3, 5-hydroxy-1H-imidazole-4-carboxamide hydrate]
Coloration and storage stability of the crystal [2]: clearly less coloration and better storage stability

NC(=O)c1nc[nH]c1O [Example 5, 5-hydroxy-1H-imidazole-4-carboxamide.3/4 hydrate]
Color of crystals [3]: Pale yellow

NC(=O)c1nc[nH]c1O [Comparative Example 4, 5-hydroxy-1H-imidazole-4-carboxamide.3/4 hydrate]
Color of crystals [3]: Blue

NC(=O)c1nc[nH]c1O [Example 11, 5-hydroxy-1H-imidazole-4-carboxamide-3/4 hydrate]
Hue (H) [1]: 3.8Y

NC(=O)c1nc[nH]c1O [Example 14, 5-hydroxy-1H-imidazole-4-carboxamide.3/4 hydrate]
Hue (H) [1]: 5.9Y

NC(=O)c1nc[nH]c1O [Comparative Example 5, 5-hydroxy-1H-imidazole-4-carboxamide.3/4 hydrate]
Color of crystals [3]: Blue

NC(=O)c1nc[nH]c1O [Example 13, 5-hydroxy-1H-imidazole-4-carboxamide.3/4 hydrate]
Color difference (ΔE) ([4]; hydrate): 5.1 | Hue (H) [1]: 5.9Y

NC(=O)c1nc[nH]c1O [Example 9, 5-hydroxy-1H-imidazole-4-carboxamide.3/4 hydrate]
Color difference (ΔE) ([4]; hydrate): 2.4 | Coloration observed with a naked eye after storage [5]: no coloration with blue color | Hue (H) [1]: 3.1Y

NC(=O)c1nc[nH]c1O [Comparative Example 7, 5-hydroxy-1H-imidazole-4-carboxamide.3/4 hydrate, reference compound]
Color difference (ΔE) ([4]; hydrate): 8.8

NC(=O)c1nc[nH]c1O [Comparative Example 6, 5-hydroxy-1H-imidazole-4-carboxamide]
Color difference (ΔE) [4]: 25.6
